Assay results reported in ChEMBL document CHEMBL3045315, “Effect of ring A and ring B substitution on the cytotoxic potential of pyrazole tethered chalcones” (Med Chem Res, 2012).
pIC50: −log10 of the molar value.

Columns and labels:
Assay type in all cases: functional, cell-based
HEp-2 = test: Cytotoxicity against Homo sapiens (human) Hep2 cells after 48 hr by SRB assay; settings: HEp-2, 48 h
IMR-32 = test: Cytotoxicity against Homo sapiens (human) IMR32 cells after 48 hr by SRB assay; settings: IMR-32, 48 h
OVCAR = test: Cytotoxicity against Homo sapiens (human) OVCAR cells after 48 hr by SRB assay
PC-3 = test: Cytotoxicity against Homo sapiens (human) PC3 cells after 48 hr by SRB assay; settings: PC-3, 48 h

Row | Structure (SMILES) | pIC50 (HEp-2) | pIC50 (IMR-32) | pIC50 (OVCAR) | pIC50 (PC-3)
1 | COc1ccc(C2CC(c3ccccc3)=NN2C(C)=O)cc1 (stereo unspecified) | 4.97 | 5.01 | 4.86 | 5.12
2 | CC(=O)N1N=C(c2ccccc2)CC1c1ccc(N(C)C)cc1 (stereo unspecified) | 4.84 | 5.02 | 4.92 | 5.10
3 | CC(=O)N1N=C(c2ccccc2)CC1c1ccccc1 (stereo unspecified) | 4.93 | 4.93 | 4.63 | 5.06
4 | CC(=O)O[C@H]1C(=O)[C@@]2(C)[C@H]([C@H](OC(=O)c3ccccc3)[C@]3(O)C[C@H](OC(=O)[C@H](O)[C@@H](NC(=O)c4ccccc4)c4ccccc4)C(C)=C1C3(C)C)[C@]1(OC(C)=O)CO[C@@H]1C[C@@H]2O [PACLITAXEL] | 6.96 | 7.52 | 7.22 | 6.92
